Here are results for ten compounds from patent US10494332B2, “Protein tyrosine phosphatases or SHP2 inhibitors and uses thereof” (Indiana University Research and Technology Corporation, priority 2015, dated 2019).

Assay type in all cases: biochemical
One test has as its target T1, Laforin (Homo sapiens, UniProt O95278).
T1 sequence (O95278 1-331): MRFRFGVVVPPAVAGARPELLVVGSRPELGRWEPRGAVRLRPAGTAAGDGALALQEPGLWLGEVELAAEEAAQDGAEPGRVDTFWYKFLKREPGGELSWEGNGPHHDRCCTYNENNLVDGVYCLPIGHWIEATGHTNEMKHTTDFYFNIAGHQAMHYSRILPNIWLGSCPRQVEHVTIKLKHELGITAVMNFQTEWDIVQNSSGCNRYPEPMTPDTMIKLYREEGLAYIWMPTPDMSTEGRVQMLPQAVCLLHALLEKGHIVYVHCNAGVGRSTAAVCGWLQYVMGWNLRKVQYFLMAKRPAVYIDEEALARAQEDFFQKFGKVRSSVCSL
The test is described as follows: PTP inhibition assay (pNPP). The conditions noted are these: for IC50: pNPP at Km, pH 7.0, 25° C., read-out: IC50 Laforin.

The next test concerns the target T2, PEST (Homo sapiens, UniProt Q05209).
T2 sequence (Q05209 1-780): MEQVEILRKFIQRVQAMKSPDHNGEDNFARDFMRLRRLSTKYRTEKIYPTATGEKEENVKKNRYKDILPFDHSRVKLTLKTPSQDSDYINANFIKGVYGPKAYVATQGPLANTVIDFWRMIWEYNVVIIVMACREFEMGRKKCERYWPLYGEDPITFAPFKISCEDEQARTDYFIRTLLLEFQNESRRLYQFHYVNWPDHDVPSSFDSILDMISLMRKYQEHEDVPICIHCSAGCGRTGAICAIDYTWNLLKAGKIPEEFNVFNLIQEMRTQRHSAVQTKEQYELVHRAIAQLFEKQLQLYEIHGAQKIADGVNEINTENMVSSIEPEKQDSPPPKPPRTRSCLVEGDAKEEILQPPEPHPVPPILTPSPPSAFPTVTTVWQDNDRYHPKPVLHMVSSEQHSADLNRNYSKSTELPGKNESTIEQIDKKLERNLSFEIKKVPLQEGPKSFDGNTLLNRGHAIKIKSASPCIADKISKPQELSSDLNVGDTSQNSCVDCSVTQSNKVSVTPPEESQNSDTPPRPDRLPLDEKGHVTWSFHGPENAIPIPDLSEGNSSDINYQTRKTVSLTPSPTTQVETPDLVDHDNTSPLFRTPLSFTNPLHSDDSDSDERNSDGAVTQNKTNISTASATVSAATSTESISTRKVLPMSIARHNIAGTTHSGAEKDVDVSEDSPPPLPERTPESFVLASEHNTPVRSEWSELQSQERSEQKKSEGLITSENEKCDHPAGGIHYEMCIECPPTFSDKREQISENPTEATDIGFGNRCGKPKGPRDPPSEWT
Put plainly: PTP inhibition assay (pNPP). The following applies: pNPP at Km, pH 7.0, 25° C.; read-out: IC50 PEST.

A further test concerns the target T3, LMWPTP (Homo sapiens, UniProt P24666).
T3 sequence (P24666 1-158): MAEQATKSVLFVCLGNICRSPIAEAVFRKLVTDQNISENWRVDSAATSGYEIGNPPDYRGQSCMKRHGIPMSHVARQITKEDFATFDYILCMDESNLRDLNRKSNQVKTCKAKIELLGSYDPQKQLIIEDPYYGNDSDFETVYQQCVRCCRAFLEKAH
Put plainly: PTP inhibition assay (pNPP). The conditions noted are these: pNPP at Km, pH 7.0, 25° C.

The target of a further test is T4, SHP2 (Homo sapiens, UniProt Q06124).
T4 sequence (Q06124 224-528): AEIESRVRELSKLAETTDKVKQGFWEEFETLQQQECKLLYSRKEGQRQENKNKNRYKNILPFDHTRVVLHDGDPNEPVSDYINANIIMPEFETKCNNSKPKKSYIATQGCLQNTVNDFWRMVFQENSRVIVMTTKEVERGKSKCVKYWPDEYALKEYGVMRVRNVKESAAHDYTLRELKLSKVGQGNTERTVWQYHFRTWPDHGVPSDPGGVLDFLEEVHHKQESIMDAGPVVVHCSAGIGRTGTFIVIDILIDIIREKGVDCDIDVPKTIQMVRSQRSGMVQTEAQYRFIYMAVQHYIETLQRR
The test is described as follows: SHP2 phosphatase inhibition assay (pNPP). The following applies: pNPP at Km, pH 7.0, 25° C.; read-out: IC50 SHP2.

Another test concerns the target T5, LYP (Homo sapiens, UniProt Q9Y2R2).
T5 sequence (Q9Y2R2 1-807): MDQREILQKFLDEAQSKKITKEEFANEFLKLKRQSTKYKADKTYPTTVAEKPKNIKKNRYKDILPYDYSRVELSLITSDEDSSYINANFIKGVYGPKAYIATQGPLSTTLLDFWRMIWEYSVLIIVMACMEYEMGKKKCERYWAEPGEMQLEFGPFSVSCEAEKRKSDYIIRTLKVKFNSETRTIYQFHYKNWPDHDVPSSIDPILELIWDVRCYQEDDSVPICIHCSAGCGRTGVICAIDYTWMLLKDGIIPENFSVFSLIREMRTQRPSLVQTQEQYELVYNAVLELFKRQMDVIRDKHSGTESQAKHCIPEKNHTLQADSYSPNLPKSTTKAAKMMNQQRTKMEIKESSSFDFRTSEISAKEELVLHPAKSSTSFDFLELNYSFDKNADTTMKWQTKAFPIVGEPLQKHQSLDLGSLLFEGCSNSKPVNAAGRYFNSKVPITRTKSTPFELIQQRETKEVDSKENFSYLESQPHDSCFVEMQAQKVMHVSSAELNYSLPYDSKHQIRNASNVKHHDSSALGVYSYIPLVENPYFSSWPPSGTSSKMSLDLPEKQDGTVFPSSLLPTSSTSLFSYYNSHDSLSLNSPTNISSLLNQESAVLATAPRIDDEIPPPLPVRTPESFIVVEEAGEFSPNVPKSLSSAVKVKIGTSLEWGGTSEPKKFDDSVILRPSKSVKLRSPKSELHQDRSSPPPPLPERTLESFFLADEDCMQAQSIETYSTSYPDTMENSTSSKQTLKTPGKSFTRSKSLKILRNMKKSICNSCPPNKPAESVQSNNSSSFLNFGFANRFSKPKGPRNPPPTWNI
Put plainly: PTP inhibition assay (pNPP). The conditions noted are these: pNPP at Km, pH 7.0, 25° C.

Another test addresses T6, CD45 (Homo sapiens, UniProt P08575).
T6 sequence (P08575 26-1306): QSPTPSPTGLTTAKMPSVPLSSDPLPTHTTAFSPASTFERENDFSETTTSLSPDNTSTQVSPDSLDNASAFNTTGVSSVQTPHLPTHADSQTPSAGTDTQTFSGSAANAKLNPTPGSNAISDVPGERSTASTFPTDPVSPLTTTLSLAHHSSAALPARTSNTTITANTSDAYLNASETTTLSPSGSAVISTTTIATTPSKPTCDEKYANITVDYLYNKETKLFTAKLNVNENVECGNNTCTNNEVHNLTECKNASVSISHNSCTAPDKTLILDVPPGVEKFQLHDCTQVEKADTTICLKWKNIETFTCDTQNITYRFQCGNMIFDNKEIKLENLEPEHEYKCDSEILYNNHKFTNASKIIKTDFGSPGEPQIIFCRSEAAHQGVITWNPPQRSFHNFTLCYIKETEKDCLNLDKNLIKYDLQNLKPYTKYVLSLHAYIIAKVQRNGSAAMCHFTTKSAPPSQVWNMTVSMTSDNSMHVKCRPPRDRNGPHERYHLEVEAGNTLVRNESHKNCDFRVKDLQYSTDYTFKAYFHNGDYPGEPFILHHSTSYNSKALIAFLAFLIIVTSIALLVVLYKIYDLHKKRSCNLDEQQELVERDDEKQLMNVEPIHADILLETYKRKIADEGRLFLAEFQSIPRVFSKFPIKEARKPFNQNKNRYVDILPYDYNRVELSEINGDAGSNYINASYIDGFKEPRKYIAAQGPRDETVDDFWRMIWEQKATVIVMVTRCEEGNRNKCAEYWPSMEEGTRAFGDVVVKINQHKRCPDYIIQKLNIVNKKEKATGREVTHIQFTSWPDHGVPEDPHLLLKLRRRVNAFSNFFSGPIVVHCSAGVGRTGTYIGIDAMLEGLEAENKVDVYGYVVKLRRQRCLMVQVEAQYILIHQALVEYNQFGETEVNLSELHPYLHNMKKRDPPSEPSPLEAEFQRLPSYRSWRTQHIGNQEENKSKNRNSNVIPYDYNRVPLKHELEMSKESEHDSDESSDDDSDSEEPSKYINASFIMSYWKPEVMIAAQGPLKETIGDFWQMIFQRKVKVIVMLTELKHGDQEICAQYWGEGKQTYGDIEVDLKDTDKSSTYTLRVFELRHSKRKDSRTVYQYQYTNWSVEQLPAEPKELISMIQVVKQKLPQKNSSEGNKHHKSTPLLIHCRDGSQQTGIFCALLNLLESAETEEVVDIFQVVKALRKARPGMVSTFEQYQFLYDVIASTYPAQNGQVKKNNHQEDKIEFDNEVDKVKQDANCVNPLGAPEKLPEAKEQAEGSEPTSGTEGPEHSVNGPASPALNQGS
Put plainly: PTP inhibition assay (pNPP). The conditions noted are these: pNPP at Km, pH 7.0, 25° C.

In another test the target is T7, PTP1B (Homo sapiens, UniProt P18031).
T7 sequence (P18031 1-435): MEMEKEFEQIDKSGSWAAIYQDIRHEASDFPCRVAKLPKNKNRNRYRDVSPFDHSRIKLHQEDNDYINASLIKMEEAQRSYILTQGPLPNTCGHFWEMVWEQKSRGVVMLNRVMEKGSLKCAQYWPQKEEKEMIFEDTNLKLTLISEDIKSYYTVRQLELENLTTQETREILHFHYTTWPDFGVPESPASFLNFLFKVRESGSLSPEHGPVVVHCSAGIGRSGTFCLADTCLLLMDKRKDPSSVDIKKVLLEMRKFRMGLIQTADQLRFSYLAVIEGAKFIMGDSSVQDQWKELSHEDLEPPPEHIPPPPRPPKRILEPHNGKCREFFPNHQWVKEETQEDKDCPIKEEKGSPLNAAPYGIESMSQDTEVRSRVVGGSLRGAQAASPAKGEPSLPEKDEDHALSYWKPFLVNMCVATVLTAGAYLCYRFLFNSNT
Put plainly: PTP inhibition assay (pNPP). The conditions noted are these: pNPP at Km, pH 7.0, 25° C.

Regarding `O=C(Nc1nnc(-c2ccccc2)s1)C(c1ccccc1)S(=O)(=O)O` (stereo not drawn) [Compound L319M73-2], the IC50 at Laforin is 1.3 µM; on PEST, > 200 µM; against LMWPTP it was 10.2 µM. Besides, the “Fold specificity for Laforin over LMPTP” value at Laforin (ratio of IC50) came out at 8 fold. Moreover, the “Fold specificity for Laforin over other PTPs” value on Laforin (ratio of IC50) turned out to be 100 fold.
As to `Cc1ccc2nc(NC(=O)C(c3ccccc3)S(=O)(=O)O)sc2c1` (stereo not drawn) [Compound L319N15-08], the IC50 at SHP2 was > 200 µM; at LYP, > 200 µM; on CD45 it was > 200 µM; at Laforin it was 2 µM; against LMWPTP, 8.2 µM; against PTP1B it was > 200 µM.
On to `O=C(Nc1nc2ccc(OC(F)(F)F)cc2s1)C(c1ccccc1)S(=O)(=O)O` (stereo not drawn) [Compound L319N15-09], for which the IC50 is 47 µM on SHP2; 20 µM on LYP; 80 µM at CD45; 3.2 µM at Laforin; 5.3 µM against LMWPTP; 160 µM on PTP1B.
In the case of `COc1ccc2nc(NC(=O)C(c3ccccc3)S(=O)(=O)O)sc2c1` (stereo not drawn) [Compound L319N15-10], the IC50 is > 200 µM on SHP2; > 200 µM on LYP; > 200 µM against CD45; 2.1 µM at Laforin; 5.8 µM at LMWPTP; > 200 µM against PTP1B.
With `Nc1ccc2nc(NC(=O)C(c3ccccc3)S(=O)(=O)O)sc2c1` (stereo not drawn) [Compound L319N15-12], the 50% inhibitory concentration (IC50) was 190 µM at SHP2; 166 µM against LYP; 160 µM against CD45; 3.3 µM on Laforin; 14 µM against LMWPTP; > 200 µM at PTP1B.
Regarding `O=C(O)c1ccc2nc(NC(=O)C(c3ccccc3)S(=O)(=O)O)sc2c1` (stereo not drawn) [Compound L319N15-13], the IC50 at SHP2 was 83 µM; against LYP it was 31 µM; on CD45, 90 µM; at Laforin, > 200 µM; against LMWPTP it was 70 µM; at PTP1B, > 200 µM. Also, the “Inhibition of Laforin at 200 μM” value on Laforin (200 μM) is “did not inhibit”.
On to `O=C(Nc1nc2ccccc2s1)C(c1ccc(Br)cc1)S(=O)(=O)O` (stereo not drawn) [Compound L319N15-14], for which the IC50 on SHP2 was > 200 µM; against LYP, > 200 µM; against CD45 it was > 200 µM; at Laforin it was 19 µM; at LMWPTP, > 200 µM; at PTP1B, > 200 µM.
On to `O=C(Nc1nc2ccccc2s1)C(c1ccc([N+](=O)[O-])cc1)S(=O)(=O)O` (stereo not drawn) [Compound L319N15-16], for which the IC50 on SHP2 is 135 µM; on LYP, 180 µM; against CD45, > 200 µM; on Laforin, 66 µM; against LMWPTP, > 200 µM; against PTP1B, > 200 µM.
Consider `O=C(Nc1nc2ccccc2s1)C(c1ccccc1F)S(=O)(=O)O` (stereo not drawn) [Compound L319N15-17], for which the IC50 on SHP2 is > 100 µM; against LYP it was > 100 µM; at CD45, > 100 µM; at Laforin, 14 µM; at LMWPTP it was > 100 µM; against PTP1B, > 100 µM.
For `O=C(Nc1nc2ccccc2s1)C(c1ccccc1Cl)S(=O)(=O)O` (stereo not drawn) [Compound L319N15-18], the IC50 on SHP2 is > 100 µM; against LYP, > 100 µM; on CD45 it was > 100 µM; at Laforin, 32 µM; at LMWPTP it was > 100 µM; at PTP1B, > 100 µM.

The IC50 is the concentration needed to halve the response being measured.
